From ChEMBL document CHEMBL3407411, “Evaluating the risk of phospholipidosis using a new multidisciplinary pipeline approach” (Eur J Med Chem, 2015)

What was measured:
Type in all cases: cell-based
Settings in all cases: hepg2, 24 h
HepG2 [1] = test: Cytotoxicity against human HepG2 cells assessed as reduction in cell viability at 0.1 to 100 uM after 24 hrs by Neutral red uptake assay
HepG2 [2] = test: Cytotoxicity against human HepG2 cells assessed as disruption of membrane integrity up to 100 uM after 24 hrs by LDH release assay
HepG2 [3] = test: Cytotoxicity against human HepG2 cells assessed as formation of lysosomal inclusion bodies at 50 uM after 24 hrs by transmission electron microscopy
HepG2 [4] = test: Cytotoxicity against human HepG2 cells assessed as NBD-PC phospholipid accumulation at 0.1 to 100 uM after 24 hrs by Hoechst 33342 normalization-based fluorescence assay
HepG2 [5] = test: Cytotoxicity against human HepG2 cells assessed as NBD-PC phospholipid accumulation after 24 hrs by Hoechst 33342 normalization-based fluorescence assay
HepG2 [6] = test: Cytotoxicity against human HepG2 cells assessed as increase in lysosomal beta-hexosaminidase level at 50 to 100 uM after 24 hrs by MUG-based fluorescence assay
HepG2 [7] = test: Cytotoxicity against human HepG2 cells assessed as disruption of membrane integrity at >= 50 uM after 24 hrs by LDH release assay
HepG2 [8] = test: Cytotoxicity against human HepG2 cells at 100 uM after 24 hrs by Hoechst 33342 staining-based fluorescence assay
HepG2 [9] = test: Cytotoxicity against human HepG2 cells assessed as reduction in cell viability after 24 hrs by Neutral red uptake assay
HepG2 [10] = test: Cytotoxicity against human HepG2 cells assessed as reduction in cell viability at >/= 50 uM after 24 hrs by Neutral red uptake assay
HepG2 [11] = test: Cytotoxicity against human HepG2 cells assessed as increase in lysosomal beta-hexosaminidase level at 10 to 100 uM after 24 hrs by MUG-based fluorescence assay
HepG2 [12] = test: Cytotoxicity against human HepG2 cells assessed as reduction in cell viability at 100 uM after 24 hrs by Neutral red uptake assay
HepG2 [13] = test: Cytotoxicity against human HepG2 cells assessed as increase in lysosomal beta-hexosaminidase level at 35 uM after 24 hrs by MUG-based fluorescence assay
HepG2 [14] = test: Cytotoxicity against human HepG2 cells assessed as increase in lysosomal beta-hexosaminidase level at 20 uM after 24 hrs by MUG-based fluorescence assay
HepG2 [15] = test: Cytotoxicity against human HepG2 cells assessed as disruption of membrane integrity at 35 uM after 24 hrs by LDH release assay
HepG2 [16] = test: Cytotoxicity against human HepG2 cells assessed as disruption of membrane integrity at 20 uM after 24 hrs by LDH release assay

Row | SMILES | Activity (HepG2 [1]) | Activity (HepG2 [2]) | Activity (HepG2 [3]) | Activity (HepG2 [4]) | Activity (HepG2 [5]) | Activity (HepG2 [8]) | other results
1 | COc1ccc(CNCC(O)c2nnn(C)n2)cc1OC (stereo unspecified) | Non-toxic | Non-toxic | Toxic | Toxic |  |  | 
2 | OC(CN1CCOCC1)c1csc2ccccc12 (stereo unspecified) | Non-toxic | Non-toxic |  | Non-toxic |  |  | 
3 | CCCCc1oc2ccccc2c1C(=O)c1cc(I)c(OCCN(CC)CC)c(I)c1 [AMIODARONE] |  |  |  |  | Dose-dependent effect | Toxic | Activity (HepG2 [6]): Toxic; Activity (HepG2 [7]): Toxic; Activity (HepG2 [9]): Dose-dependent effect
4 | C1CN(CCN2CCOCC2)CCO1 | Non-toxic | Non-toxic |  | Non-toxic |  |  | 
5 | CCN(CC)CCNC1=Nc2ccccc2CCC1 |  |  | Toxic | Non-toxic |  |  | Activity (HepG2 [6]): Toxic
6 | c1cc(C[N+]23CN4CN(CN(C4)C2)C3)cs1 | Non-toxic | Non-toxic |  | Non-toxic |  |  | 
7 | CCOc1ccc(Br)cc1CNCC1CCNCC1 |  |  | Toxic |  | Dose-dependent effect | Toxic | Activity (HepG2 [10]): Toxic; Activity (HepG2 [11]): Toxic; Activity (HepG2 [7]): Toxic; Activity (HepG2 [9]): Dose-dependent effect
8 | CCN(CC)CCNCc1c(OC)ccc2ccccc12 |  |  | Toxic |  | Dose-dependent effect | Non-toxic | Activity (HepG2 [12]): Non-toxic; Activity (HepG2 [11]): Toxic
9 | CN/C(=N/CCSCc1nc[nH]c1C)NC#N [CIMETIDINE] | Non-toxic | Non-toxic |  | Non-toxic |  |  | 
10 | Cc1cccc(C)c1C(OCCN(C)C)C1CCCCC1 (stereo unspecified) |  |  | Toxic |  | Dose-dependent effect | Toxic | Activity (HepG2 [13]): Toxic; Activity (HepG2 [14]): Toxic; Activity (HepG2 [10]): Toxic; Activity (HepG2 [15]): Non-toxic; Activity (HepG2 [16]): Non-toxic; Activity (HepG2 [6]): Toxic; Activity (HepG2 [7]): Toxic; Activity (HepG2 [9]): Dose-dependent effect
11 | CC1=NN(C(=O)c2nn(C)cc2[N+](=O)[O-])C(O)(C(F)(F)F)C1 (stereo unspecified) | Non-toxic | Non-toxic |  | Non-toxic |  |  | 
12 | Clc1ccccc1CNC1CN2CCC1CC2 (stereo unspecified) |  |  |  | Non-toxic |  |  | 
